The results in this text go back to US12503475B2 (Centessa Pharmaceuticals (UK) Limited, priority 2020, dated 2025).

Broadly, the Emax is the greatest response seen or fitted, relative to the assay's reference.

This experiment deals with T1, human orexin type 2 receptor (hOX2R) (Homo sapiens, UniProt O43614).
T1 construct: expressed in transfected cells
T1 sequence (O43614 1-444): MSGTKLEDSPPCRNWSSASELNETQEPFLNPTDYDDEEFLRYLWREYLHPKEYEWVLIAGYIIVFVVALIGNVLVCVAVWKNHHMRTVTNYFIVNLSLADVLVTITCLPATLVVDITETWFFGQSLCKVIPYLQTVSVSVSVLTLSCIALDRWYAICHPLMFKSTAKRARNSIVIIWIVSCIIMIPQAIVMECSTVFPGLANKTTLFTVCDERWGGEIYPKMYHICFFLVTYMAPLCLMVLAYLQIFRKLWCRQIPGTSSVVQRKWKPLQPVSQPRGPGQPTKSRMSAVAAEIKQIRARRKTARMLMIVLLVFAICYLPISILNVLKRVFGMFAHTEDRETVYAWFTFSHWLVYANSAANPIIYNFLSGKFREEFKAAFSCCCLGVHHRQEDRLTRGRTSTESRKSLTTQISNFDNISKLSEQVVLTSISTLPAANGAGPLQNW
Kind of experiment: Measurement of orexin type 2 receptor agonist activity (FLIPR calcium fluorescence). The following applies: CHO cells expressing hOX2R, FLIPR calcium fluorescence; for EC50: read-out: hOx2 pEC50 (converted); for Emax: CHO, read-out: hOx2 Emax (%). It is filed as cell-based. A digest of the protocol:
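Agonism was read as fluorescence in cells stably expressing human OX2R. E. is the response at 10 μM relative to orexin A as full agonist (100%).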

`CCS(=O)(=O)NC1C(Cc2cccc(-c3ccccc3)c2)N(C(=O)N2CCC2)CC12CC2` (racemic) [Compound 3]: the EC50 is 1 to 10 nM and the Emax is 90 to 100%.

Take `CCS(=O)(=O)N[C@@H]1[C@H](Cc2cccc(-c3ccccc3)c2)N(C(=O)[C@H](O)C(F)(F)F)CC12CC2` [Compound 58, N-((6S,7S)-6-([1,1′-biphenyl]-3-ylmethyl)-5-((S)-3,3,3-trifluoro-2-hydroxypropanoyl)-5-azaspiro[2.4]heptan-7-yl)ethanesulfonamide]: the EC50 is 1 to 10 nM and the Emax was 90 to 100%.

On to `O=C([C@H]1CCO1)N1CC2(CC2)[C@H](NS(=O)(=O)c2c[nH]cn2)[C@@H]1Cc1cccc(-c2ccccc2)c1` [Compound 75, N-((6S,7S)-6-([1,1′-biphenyl]-3-ylmethyl)-5-((R)-oxetane-2-carbonyl)-5-azaspiro[2.4]heptan-7-yl)-1H-imidazole-4-sulfonamide], for which the EC50 was 10 to 100 nM and the Emax is 90 to 100%.

Turning to `O=C([C@H]1C[C@H](F)C1)N1CC2(CC2)[C@H](NS(=O)(=O)CF)[C@@H]1Cc1cccc(-c2ccccc2)c1F` [Compound 188], the EC50 is 1 to 10 nM and the maximal effect (Emax) lay within 90 to 100%.

For the compound `CO[C@H](C)CNC(=O)N1CC2(CC2)[C@H](NS(C)(=O)=O)[C@@H]1Cc1cccc(-c2ccccc2)c1F` [Compound 324, (6S,7S)-6-((2-fluoro-[1,1′-biphenyl]-3-yl)methyl)-N-((R)-2-methoxypropyl)-7-(methylsulfonamido)-5-azaspiro[2.4]heptane-5-carboxamide], the EC50 is 10 to 100 nM and the Emax is 90 to 100%.

With `[2H]C([2H])([2H])N(C(=O)N1CC2(CC2)[C@H](NS(C)(=O)=O)[C@@H]1Cc1cccc(-c2ccccc2)c1F)C([2H])([2H])[2H]` [Compound 345, (6S,7S)-6-((2-fluoro-[1,1′-biphenyl]-3-yl)methyl)-N,N-bis(methyl-d3)-7-(methylsulfonamido)-5-azaspiro[2.4]heptane-5-carboxamide], the EC50 was 1 to 10 nM and the Emax lay within 90 to 100%.

Take `CC(C)(O)C(=O)N1CC2(CC2)[C@H](NS(=O)(=O)CF)[C@@H]1Cc1cccc(-c2cc(F)cc(F)c2)c1F` [Compound 192, 1-fluoro-N-((6S,7S)-5-(2-hydroxy-2-methylpropanoyl)-6-((2,3′,5′-trifluoro-[1,1′-biphenyl]-3-yl)methyl)-5-azaspiro[2.4]heptan-7-yl)methanesulfonamide]: the EC50 was 1 to 10 nM and the Emax is 90 to 100%.

For the compound `CC[C@](C)(O)C(=O)N1CC2(CC2)[C@H](NS(=O)(=O)CF)[C@@H]1Cc1cccc(-c2cccc(F)c2)c1F` [Compound 376, N-((6S,7S)-6-((2,3′-difluoro-[1,1′-biphenyl]-3-yl)methyl)-5-((S)-2-hydroxy-2-methylbutanoyl)-5-azaspiro[2.4]heptan-7-yl)-1-fluoromethanesulfonamide], the EC50 is 1 to 10 nM and the Emax was in the range of 90 to 100%.

`CCNC(=O)N1CC2(CC2)[C@H](NS(=O)(=O)CC)[C@@H]1Cc1cccc(-c2ccccc2)c1F` [Compound 89]: the “hOx2 Emax (%)” value was “A (Emax ranging between 90 and 100)”; the “hOx2 pEC50” value was “***** (pEC50 ranging between 9.0 and 10.1)”.

With `C[C@@H](F)C(=O)N1CC2(CC2)[C@H](NS(=O)(=O)CF)[C@@H]1Cc1cccc(-c2cc(F)cc(F)c2)c1F` [Compound 233, 1-fluoro-N-((6S,7S)-5-((R)-2-fluoropropanoyl)-6-((2,3′,5′-trifluoro-[1,1′-biphenyl]-3-yl)methyl)-5-azaspiro[2.4]heptan-7-yl)methanesulfonamide], the EC50 was 10 to 100 nM and the Emax was in the range of 80 to 90%.

For the compound `CS(=O)(=O)N[C@@H]1[C@H](Cc2cccc(-c3ccccc3)c2F)N(C(=O)NC[C@H]2CCOC2)CC12CC2` [Compound 335, (6S,7S)-6-((2-fluoro-[1,1′-biphenyl]-3-yl)methyl)-7-(methylsulfonamido)-N-(((R)-tetrahydrofuran-3-yl)methyl)-5-azaspiro[2.4]heptane-5-carboxamide], the EC50 is 1 to 10 nM and the Emax fell in the range of 90 to 100%.

On to `CC(C)NC(=O)N1CC2(CC2)[C@H](NS(C)(=O)=O)[C@@H]1Cc1cccc(-c2ccccc2)c1F` [Compound 85], for which the EC50 was 0.0794 to 1 nM and the maximal effect (Emax) was in the range of 90 to 100%.

In the case of `CS(=O)(=O)NC1C(Cc2cccc(-c3ccccc3)c2F)N(C(=O)C2(O)CCC2)CC12CC2` (racemic) [Compound 50, N-(6-((2-fluoro-[1,1′-biphenyl]-3-yl)methyl)-5-(1-hydroxycyclobutane-1-carbonyl)-5-azaspiro[2.4]heptan-7-yl)methanesulfonamide], the EC50 was 0.0794 to 1 nM and the Emax was in the range of 90 to 100%.

Turning to `CC(C)S(=O)(=O)N[C@@H]1[C@H](Cc2cccc(-c3cc(F)cc(F)c3)c2F)N(C(=O)[C@H]2CCO2)CC12CC2` [Compound 222, N-((6S,7S)-5-((R)-oxetane-2-carbonyl)-6-((2,3′,5′-trifluoro-[1,1′-biphenyl]-3-yl)methyl)-5-azaspiro[2.4]heptan-7-yl)propane-2-sulfonamide], the EC50 is 0.0794 to 1 nM and the Emax fell in the range of 90 to 100%.

Take `CS(=O)(=O)N[C@@H]1[C@H](Cc2cccc(-c3ccccc3)c2)N(C(=O)[C@H](O)C2CC2)CC12CC2` [Compound 61, N-((6S,7S)-6-([1,1′-biphenyl]-3-ylmethyl)-5-((R)-2-cyclopropyl-2-hydroxyacetyl)-5-azaspiro[2.4]heptan-7-yl)methanesulfonamide]: the EC50 was 1 to 10 nM and the maximum response (Emax) lay within 90 to 100%.

Take `COC1CN(C(=O)N2CC3(CC3)[C@H](NS(=O)(=O)N(C)C)[C@@H]2Cc2cccc(-c3ccccc3)c2F)C1` [Compound 118, N-((6S,7S)-6-((2-fluoro-[1,1′-biphenyl]-3-yl)methyl)-5-(3-methoxyazetidine-1-carbonyl)-5-azaspiro[2.4]heptan-7-yl)-N,N-dimethylsulfuric diamide]: the EC50 was 1 to 10 nM and the Emax was 90 to 100%.

In the case of `CN(C)S(=O)(=O)N[C@@H]1[C@H](Cc2cccc(-c3ccccc3)c2F)N(C(=O)C2(O)CCC2)CC12CC2` [Compound 120, N-((6S,7S)-6-((2-fluoro-[1,1′-biphenyl]-3-yl)methyl)-5-(1-hydroxycyclobutane-1-carbonyl)-5-azaspiro[2.4]heptan-7-yl)-N,N-dimethylsulfuric diamide], the EC50 is 0.0794 to 1 nM and the Emax lay within 90 to 100%.

With `CS(=O)(=O)N[C@@H]1[C@H](Cc2cccc(-c3cccc(F)c3)c2F)N(C(=O)[C@H]2CCO2)CC12CC2` [Compound 67, N-((6S,7S)-6-((2,3′-difluoro-[1,1′-biphenyl]-3-yl)methyl)-5-((R)-oxetane-2-carbonyl)-5-azaspiro[2.4]heptan-7-yl)methanesulfonamide], the EC50 is 1 to 10 nM and the Emax was 90 to 100%.

For the compound `[2H]C([2H])([2H])c1cccc(-c2cccc(C[C@H]3[C@@H](NS(=O)(=O)CF)C4(CC4)CN3C(=O)[C@H]3CCO3)c2F)c1` [Compound 229, 1-fluoro-N-((6S,7S)-6-((2-fluoro-3′-(methyl-d3)-[1,1′-biphenyl]-3-yl)methyl)-5-((R)-oxetane-2-carbonyl)-5-azaspiro[2.4]heptan-7-yl)methanesulfonamide], the EC50 was 0.0794 to 1 nM and the Emax was in the range of 90 to 100%.
